# Measured values as given in patent US12421243B2, “Pharmaceutically effective compounds inhibiting selectively the myosin 2 isoforms” (PRINTNET KERESKEDELMI ÉS SZOLGÁLTATÓ KFT., priority 2018, dated 2025).
# Test system: M. quadriceps femoris
# Assay: isometric force measurement of live, anesthetized rat M. quadriceps femoris due to electrical stimulation
# Assay type: in vivo
# Procedure: The maximum isometric force induced by the stimulation was determined after intraperitoneal injection of some of the compounds of the invention. During the measurement, the following parameters of live anesthetized rats were continuously monitored: • a) heart rate • b) blood flow in the neck arteries • c) respiratory frequency • d) blood oxygen saturation ratio Results from live anesthetized rats are summarized in the table below.
compound,measurement,setting,value
"O=C1c2ccsc2N=C2N(c3ccc(N4CCOCC4)cc3)CCC12O (stereo not drawn) [Compound 188, 9-Hydroxy-12-[4-(morpholin-4-yl)phenyl]-4-thia-2,12-diazatricyclo[7.3.0.0^3,7]dodeca-1,3(7),5-trien-8-one]",Maximum change in isometric force at rear leg (%),1 mg i.p.,23%
same,Maximum change in isometric force at rear leg (%),3 mg i.p.,26%
same,Maximum change in isometric force at rear leg (%),6 mg i.p.,28%
